According to PMC7721913 (The Journal of Cell Biology, 2020):
Read-outs that look alike come from different tables or passages of the source. Ends that are not written are not given here.

What was measured:
[1] = target: KLC1 TPR1-6; conditions: cited from earlier work
[2] = target: KLC1 TPR1-6 fragment (KLC1: 205-501) (Homo sapiens, UniProt Q07866); test: ITC binding of SFPQ peptides to KLC1
[3] = tested on: SFPQ; test: Coimmunoprecipitation of endogenous SFPQ from DRG lysate, Western blot; assay type: binding, rat; conditions: DRG sensory neuron lysate

KLC1 TPR1-6 fragment (KLC1: 205-501), sequence (Q07866 205-501): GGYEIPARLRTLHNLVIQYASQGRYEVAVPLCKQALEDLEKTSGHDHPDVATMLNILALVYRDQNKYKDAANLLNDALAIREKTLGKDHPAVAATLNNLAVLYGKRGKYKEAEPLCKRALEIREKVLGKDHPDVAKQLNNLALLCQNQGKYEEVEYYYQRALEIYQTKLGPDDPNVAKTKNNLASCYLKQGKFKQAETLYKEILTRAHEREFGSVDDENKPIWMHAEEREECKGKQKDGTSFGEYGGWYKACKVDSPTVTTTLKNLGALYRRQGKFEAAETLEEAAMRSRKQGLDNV

For EYTCPTEDIYLE [JIP1: EYTCPTEDIYLE], the Kd ([1]; KLC1: 228-495, ref Zhu et al., 2012) is listed as 9.4 ± 5.85 µM.

For TCPTEDIYLE [JIP1: TCPTEDIYLE], the Kd ([1]; KLC1: 205-502, ref Nguyen et al., 2018) is given as 5 ± 0.5 µM.

In the case of ESEMEDAAHEHQANLLR [SFPQ^Y527A peptide], the “binding to KLC1 (in words)” value ([2]; ITC, 25°C, pH 7.5) is reported as “did not bind to KLC1”, the ΔS ([2]; ITC, 20 mM Hepes (pH 7.5), 150 mM NaCl, 0.5 mM TCEP, 2% DMSO, 25°C) is reported as “No binding” and the ΔH ([2]; ITC, 20 mM Hepes (pH 7.5), 150 mM NaCl, 0.5 mM TCEP, 2% DMSO, 25°C, single-site model) is reported as “No binding”.

For “KIF1A: axonal transport motor protein in DRGs”, the “coimmunoprecipitation with SFPQ (in words)” value [3] was “none of these kinesins significantly coimmunoprecipitates with SFPQ”.

For “KIF3A: kinesin transporting RNA granules in neurons”, the “coimmunoprecipitation with SFPQ (in words)” value [3] was “none of these kinesins significantly coimmunoprecipitates with SFPQ”.

With ESEMEDAYHEHQANLLR [WT SFPQ peptide] the Kd [2] was 3.83 ± 2.31 µM.
